# Laboratory results: patent publication US6160166A, “Phosphonated agents and their antiangiogenic and antitumorigenic use” (priority 1999, dated 2000)
# “Also recorded” adds a separate entry of the source.
# How the values were obtained:
# [1] = system: HMEC-1 cells
# Method: Triplicates were carried out for each period of incubation. At the end of each incubation period, the cells were processed through different washings and finally to differential centrifugation. Different cell fractions were transferred to separate scintillation vials, solubilized in a liquid scintillation cocktail and counted in a 2000 CA TRICARB Liquid Scintillation Counter.
# [2] = system: human microvascular endothelial cells; test: Detachment / toxicity of cultured human microvascular endothelial cells; assay type: cell-based
# [3] = system: bFGF binding sites of human microvascular endothelial cells; test: I125 bFGF binding to human microvascular endothelial cells; conditions: for percentage of inhibition of I125 bFGF binding: low and high affinity binding sites
# Source text: However, for the same concentrations of the phosphonic acid agents, the inhibition of growth factor binding was always less than 5% in relation to the control.
# However, for the same concentrations of phosphonic acid agents, the inhibition of growth factor binding was always less than 5% in relation to the control.
# [4] = system: DNA synthesis; conditions: Jindal et al. (1990); cited from earlier work
# [5] = system: human cerebral meningioma cells; conditions: Schrell et al., 1995; cited from earlier work
# [6] = target: cyclic AMP-dependent protein kinase; conditions: Mahoney et al., 1990; cited from earlier work
# [7] = system: angiogenesis in mouse (Matrigel plus bFGF and heparin); conditions: Pesenti et al. (1992); cited from earlier work
# [8] = system: prostate carcinoma cells; conditions: after 24 hr exposure (Qiao et al., 1994); cited from earlier work
# [9] = system: human dermal microvascular and porcine pulmonary artery endothelial cells; test: bFGF-stimulated and non-stimulated endothelial cell growth (total protein, total DNA); assay type: cell-based; conditions: suramin 210 μM
# Source text: Suramin is a highly charged molecule with six sulfonate groups that are ionized at physiologic pH.
# [10] = system: human microvascular endothelial cells (HMEC-1, HMVEC-d); test: 3H-Leucine incorporation, inhibition of protein synthesis; assay type: cell-based; conditions: time course
# Method: For each time period, six replicate flasks are set up. The volume of the medium MCDB-131 is 10 ml per flask. After incubation, the medium was replaced with fresh MCDB-131 containing […] of ^3 H-leucine and incubated for a further 90 min. TritonX-100 (240 μl, 10%) were then added to the contents of each flask and agitated. Trichloroacetic acid (TCA) (4 ml, 20%) is added, the contents mixed and the flasks left overnight at room temperature. After 24 hr, the flask contents was suspended by shaking, transferred to tubes and centrifuged at 4300 g. The pellets were resuspended in 10% TCA and recentrifuged and then resuspended in 3.0 ml of 0.1 M NaOH. Half of this volume was transferred to scintillation vials in 10 ml of Emulsifier Safe scintillation fluid (Packard) while the remaining 1.5 ml was used to assay DNA content (LaBarca and Paigen, 1980). The radioactive counts due to protein synthesized in the presence of ^3 H-leucine was normalized to counts/μg DNA. Protein synthesis by cells treated with the phosphonic acid agents are expressed relative to that of control cells as the percent of inhibition for each time of incubation.
# After this period of time, the rate steadily declines.
# [11] = system: urokinase receptor; conditions: cited from earlier work
# [12] = system: chick chorioallantoic membrane (CAM); test: Chick egg chorioallantoic membrane (CAM) assay, 6-day, growing vessels: inhibition of angiogenesis; assay type: in vivo
# Source text: The purpose of this experiment was to test the ability of the phosphonic acid agents described above to inhibit angiogenesis. […]
# Comparison of the inhibition of angiogenesis by 70 nmol of
# suramin or a equimolar amount of a phosphonic acid agents in the
# 6-day and 11-day chick egg chorioallantoic (CAM) assay.
structure (smiles),measurement,setting,value
Cc1ccc(C(=O)Nc2ccc(S(=O)(=O)O)c3cc(S(=O)(=O)O)cc(S(=O)(=O)O)c23)cc1NC(=O)c1cccc(NC(=O)Nc2cccc(C(=O)Nc3cc(C(=O)Nc4ccc(S(=O)(=O)O)c5cc(S(=O)(=O)O)cc(S(=O)(=O)O)c45)ccc3C)c2)c1 [suramin],time to plateau of cell incorporation,[1],around 24 hr
same,floating cells,[2]; 24 hr of treatment,a large number of floating cells
same,time for detection of suramin toxicity on endothelial cells,[2]; concentrations higher than 200 μM,> 12 h
same,percentage of inhibition of I125 bFGF binding,[3]; 25 μM,9%
same,percentage of inhibition of I125 bFGF binding,[3]; 70 μM,96%
same,"effect on bFGF binding, in words",[3]; same molar concentrations as suramin,inhibited I^125 bFGF binding in a dose-related manner
same,effect on DNA synthesis,[4],inhibitory action of suramin on DNA synthesis
same,effect on proliferation and cell cycle,[5],inhibited proliferation of human cerebral meningioma cells and increased the percentage of cells in the S and G2/M phase of the cell cycle; also recorded: inhibited meningioma cell proliferation in five different tumor lines by arresting cells in G2-M and S phases of the cell cycle
same,IC50,[6],656 µM
same,"inhibition of angiogenesis in vivo, in words",[7],effective inhibitor of angiogenesis in vivo
same,effect on cell cycle,[8],slowly arrested in the G1 phase
same,effect on bFGF stimulation of endothelial cell growth,[9],inhibited the stimulatory effect of bFGF; also recorded: inhibited the growth factor stimulatory effect
same,effect on protein synthesis,[10],no change in the rate of protein synthesis until suramin and the cells have been incubated together for at least 24 hr
same,inhibition of urokinase receptor mediated plasminogen activation,[11],specific inhibition of the activity of the urokinase receptor mediated cell surface plasminogen activation system
same,6-day CAM % Inhibition of angiogenesis,"[12]; 70 nmol or equimolar amount, 6-day CAM",64%
same,"inhibition of angiogenesis in the 6-day CAM, in words","[12]; 6-day CAM, rapidly growing vessels",showed antiangiogenic activity; also recorded: clearly affected both the growing and established vascular cells
same,"ID50, dose that produces 50% inhibition of angiogenesis",[12]; CAM assay,75 nmol
